Test results taken from article PMC10447463, “Data-mining unveils structure–property–activity correlation of viral infectivity enhancing self-assembling peptides” (Nature Communications, 2023).
Like-named read-outs stand apart in the source and are kept apart here.

Assays:
[1] = Turbidity, derived count rate of scattered light; assay type: physicochemical; conditions: for Log Count Rate: log of derived count rate; for Count Rate: turbidity
In short: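 One-day room-temperature aggregation at 1 mg/mL in PBS (pH 7.4) preceded measurement; samples then went into 1 mM KCl. Triplicates per sample, two independent experiments averaged.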

[2] = Zeta-potential measurement; assay type: physicochemical; conditions: for Zeta-pot. / mV: zeta potential of peptide, Fig S15 source data
In short: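 Surface charge of aggregated peptides: 1 mg/mL solutions in PBS (pH 7.4) incubated 1 d at RT, diluted into 1 mM KCl just before reading. Electrophoretic mobility converted to zeta potential by the Smoluchowski formula; triplicate measurements from two separate experiments averaged.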

[3] = system: HIV-1 infection of TZM-bl cells; experiment: HIV-1 infectivity enhancement assay, β-galactosidase luminescence; assay type: cell-based; conditions: for Absolute Infectivity / RLU /s (Feb2021): figures match the 1.3 µM column; for Rel-to EFC / n-fold to virus: Fig S8 panels B, D; for Log10 Inf. rel. to EF-C: log10 of HIV-1 infection of TZM-bl cells relative to EF-C, Fig S15 source data, asymmetric std dev errors
[4] = Fig S8 panels A, C, asymmetric log errors
[5] = Fig S8 panels B, D, derived count rate of scattered light
[6] = category 1 or 0 derived from the count rate, key not given
[7] = derived count rate of scattered light
[8] = derived count rate of scattered light, mean, std deviation in next column
[9] = category derived from the zeta potential
[10] = Feb2021, Log10 of infectivity relative to EF-C
[11] = Feb2021, infectivity enhancement relative to EF-C
[12] = Feb2021, infectivity relative to virus only
[13] = Feb2021, n-fold infectivity relative to EF-C
[14] = infectivity enhancement relative to EF-C
[15] = infectivity n-fold relative to virus alone
[16] = infectivity class (low / medium / high) of each library peptide, main list in c1-c6, same classes repeated in sub-lists of sequences containing the hydrophobicity/charge patterns P+,H0,P+,H0,P0,H0,P0, P+,H0,P0,H0,P0,H0,P0, P+,H0,P0,H0
[17] = category 1 or 0 from count rate, key not given
[18] = Feb2021, n-fold enhancement relative to EF-C

| Sequence | Log Count Rate [1, 4] | Log Count Rate ([1]; Fig S8 panels B, D) | Count Rate [1, 5] | Zeta Count Rate Category ([1]; category 1 / 0, no key given) | Zeta Count Rate Category [1, 6] | Zeta Count Rate / kcps [1, 7] [kcps] | Zeta Count Rate / kcps [1, 8] [kcps] | Zeta Pot. / mV [2] [mV] | Zeta category ( +1 = if > 4 mV;-1 = if < -4 mV; 0 = -4mV to 4 mV) [2] | Zeta category ( +1 = if > 4 mV;-1 = if < -4 mV; 0 = -4mV to 4 mV) [2, 9] | Zeta Pot. / mV ([2]; mean, Std Zeta in next column) [mV] | Zeta-pot. / mV [2] [mV] | Log10 of Rel to EFC (Feb2021) [3, 10] | Absolute Infectivity / RLU /s (Feb2021) ([3]; Feb2021) [RLU /s] | Rel-to EFC (Feb-2021) [3, 11] | n-fold to virus (Feb2021) [3, 12] | Rel-to EFC (Feb-2021) [3, 13] | Rel-to EFC [3, 14] | infectivity [3, 16] | Log10 Inf. rel. to EF-C [3] | also measured |
| --- | --- | --- | --- | --- | --- | --- | --- | --- | --- | --- | --- | --- | --- | --- | --- | --- | --- | --- | --- | --- | --- |
| HHHHKIKIKIKIYYYY [TM6] | 4.107 | 4.107 | 12792.5 | 1 | 1 | 12792.53333 | 12792.53333 | 13.2 | 1 (+1 = if > 4 mV) | 1 (+1 = if > 4 mV) | 13.2 | 13.2 | -0.1685 | 20713.33333 | 0.6784 | 28.5 | 0.6784 | 0.6784 | medium | -0.1685 | n-fold to virus [3, 15]: 28.5 |
| QCKFKQFF [CK12] | – | – | – | 1 | 1 | 225.4 | 225.4 | 4.94 | 1 (+1 = if > 4 mV) | 1 (+1 = if > 4 mV) | 4.94 | 4.94 | -1.907 | 170 | 0.01239 | 0.5204 | 0.01239 | – | low | -1.907 | Zeta Count Rate / kcps ([1]; derived count rate of scattered light, mean, std deviation in separate column): 225.4 kcps; Zeta Pot. / mV ([2]; mean, Std in separate column): 4.94 mV; n-fold to virus (Feb2021) ([3]; Feb2021 run, infectivity n-fold relative to virus alone): 0.5204; Log10 of Rel to EFC (Feb2021) ([3]; Feb2021 run, log10 of infectivity relative to EF-C): -1.907; Rel-to EFC (Feb-2021) ([3]; Feb2021 run, n-fold infectivity relative to EF-C): 0.01239 |
| KFKFKFQF [TG18] | – | – | – | 1 | – | 1036 | 1036 | 15.2 | 1 (+1 = if > 4 mV) | – | 15.2 | 15.2 | -0.09726 | 18696.66667 | – | 33.59 | 0.7993 | – | – | -0.09726 | Zeta Count Rate Category [1, 17]: 1; Zeta category ( +1 = if > 4 mV;-1 = if < -4 mV; 0 = -4mV to 4 mV) ([2]; category from zeta potential): 1 (+1 = if > 4 mV); Rel-to EFC (Feb-2021) [3, 18]: 0.7993; infectivity ([3]; infectivity class (low / medium / high) of the peptide in the sequence-pattern analysis, Fig. S22-A4, class limits not given): high |
| KIKQIINMWQ [JG2] | 2.789 | 2.789 | 615.53 | 1 | – | 615.5 | 615.5 | 15.37 | 1 (+1 = if > 4 mV) | – | 15.37 | 15.37 | -0.4604 | 9363 | – | 14.55 | 0.3464 | 0.3464 | medium | -0.4604 | Zeta Count Rate Category [1, 17]: 1; Zeta Count Rate / kcps ([1]; derived count rate from zeta measurement, mean): 615.5 kcps; Zeta Count Rate Category ([1]; key not given): 1; Zeta category ( +1 = if > 4 mV;-1 = if < -4 mV; 0 = -4mV to 4 mV) ([2]; FigS26): 1 (+1 = if > 4 mV); Zeta category ( +1 = if > 4 mV;-1 = if < -4 mV; 0 = -4mV to 4 mV) ([2]; category from zeta potential): 1 (+1 = if > 4 mV); Zeta Pot. / mV ([2]; mean, Std in separate column): 15.37 mV; Rel-to EFC (Feb-2021) [3, 18]: 0.3464; n-fold to virus [3, 15]: 14.5544; Rel-to EFC (Feb-2021) ([3]; infectivity enhancement relative to EF-C (=1), Feb2021 run): 0.3464; n-fold to virus (Feb2021) ([3]; infectivity n-fold relative to virus only, Feb2021 run): 14.55; Log10 of Rel to EFC (Feb2021) ([3]; log10 of infectivity relative to EF-C, Feb2021 run): -0.4604 |
